Columns and labels:
[1] = Single dose oral pharmacokinetic studies in rabbits; type: in vivo, male New Zealand White rabbits; settings: for Plasma concentration, mean: 90 mg/kg b.w. oral; for Cmax / MRT last / Tmax / AUC(0-t) / AUC(0-inf) / half-life: male, New Zealand White, plasma, po
Method: The studies detailed below (and referred to as Examples 2 to 8) were conducted to provide comparative single dose oral pharmacokinetics data for Compound 1, as well as sodium and potassium salts of that compound, using non-coated and enteric-coated capsules in male New Zealand White rabbits.
Compound 1 was made using the process described in WO 2011/004162 and milled as described for Example 1c. The non-coated or enteric coated gelatin capsules were individually filled with 180 mg of dry-milled Compound 1 together with accompanying excipients as indicated. Both capsule types were filled with Compound 1 together with 1.8 mg of sodium docusate, 0.18 mg of PVP K30 and 9 mg of mannitol.
Similarly, Compound 2, non-coated or enteric coated gelatin capsules were individually filled with 180 mg of dry-milled Compound 2 (as obtained in Example 1f) together with 1.8 mg of sodium docusate, 0.18 mg of PVP K30 and 9 mg of mannitol.
For Compound 3, non-coated or enteric coated gelatin capsules were individually filled with 90 mg of dry-milled Compound 3 (as obtained in Example 1i) together with 0.90 mg of sodium docusate, 0.09 mg of PVP K30 and 4.50 mg of mannitol.
40 mL of the 2% w/v methyl cellulose solution was added to a 250 mL conical flask together with 10 g of 2 mm glass beads, and vigorously stirred. Compound 1 (720 mg) was slowly added to the solution and the mixture was with continuously stirred for 1 h. The homogenate was transferred to separate flask and its pH recorded. The suspension formulation was prepared before administration to the animals.
Adult healthy male New Zealand white rabbits aged approximately 2 to 3 months old were used for experimentation after 7 days of acclimatization.
To dose the filled capsules, a soft plastic dosing tube was used. The filled capsule was inserted into the dosing tube so that the short end of the capsule protrudes slightly from the tip of the tube. The tip of the capsule was dipped in mineral oil to aid swallowing.
To dose the suspension, an infant feeding tube was used. The feeding tube was inserted through the mouth of the rabbit to the oesophagus and the stomach, and ascertained that it has not been placed in the trachea before dosing to the animals. The suspension of the Compound 1 was administered through the feeding tube. After the administration of the suspension, drinking water of approximately 2.0-2.5 mL was administered to flush out the contents in the feeding tube.
The animals were restrained in a rabbit restrainer and blood samples (400-500 μL/time point) were collected via the central ear artery at 0.16, 0.25, 0.50, 1.0, 2.0, 4.0, 6.0, 8.0, 24.0, 48.0 and 72 hours post-dosing. Collected blood specimens were centrifuged at 4000 or 6000 rpm, 4° C. for 10 minutes and plasma samples were separated and stored at −80° C. until analysis.
Concentrations of the analyte of Compound 1 in New Zealand white rabbits was determined using an API 3200 Q-trap LC-MS/MS system.
Chromatographic separation was achieved on Zorbax C18, 50×4.6 mm, 5 μm column with methanol-0.1% formic acid as mobile phase with gradient elution. The flow rate was set at 1.0 mL min^−1. Detection was accomplished by a triple-quadrupole tandem mass spectrometer in multiple-reaction monitoring (MRM) scanning via electrospray ionization source, applied in the positive mode. The optimised mass transition ion-pairs for quantitation were m/z 379.999→125.000 for the compound 1 and m/z 376.165→165.00 for the ISD (Haloperidol). Calibration plots were linear over the range of 11.062 to 20594.820 ng/mL.
The data of plasma concentration to respective time points for the analyte Compound 1 were used for the pharmacokinetic analysis. Pharmacokinetic analysis was performed using non-compartmental analysis (NCA) module of Phoenix WinNonlin 6.3 software to determine the following pharmacokinetic parameters: • Cmax • Tmax • AUC0-t • AUC0-∞ • T1/2 • MRT […]

[2] = Particle size analysis of dry-milled products (laser diffraction, Shimadzu SALD-2300); type: physicochemical
Method: Milling was performed for Examples 1a to 1c using an air jet mill (Equipment code: CP-AJM-01; Promas engineers) with the following parameters: Micronisation was repeated in all examples by performing the air jet milling for a second time using the same parameters. This allowed the particle size D90 to be reduced to less than 10 μm. [table] Four drops of Tween 20 were added to 25 mL of water and the mixture was sonicated for 3 minutes to form the dispersant solution. 0.05 g of milled material was transferred into a 250 mL glass beaker. 25 mL of the dispersant solution (Tween 20/water mixture) was added to the beaker with continuous swirling for 2 to 3 minutes. The suspension was transferred into the measuring unit and the particle size distribution measurements were conducted in triplicate.

[3] = rabbit, 25 mg/kg, enteric coated capsule with MgO, 25 mg/kg b.w. oral single dose, rabbit plasma (Example 9)
[4] = rabbit, 25 mg/kg, enteric coated capsule with mannitol, 25 mg/kg b.w. oral single dose, rabbit plasma (Example 10)
[5] = rabbit, 53 mg/kg, enteric coated capsule with MgO, 53 mg/kg b.w. (equivalent to 50 mg/kg Compound 1) oral single dose, rabbit plasma (Example 11)
[6] = rabbit, 90 mg/kg, enteric coated capsule, 90 mg/kg b.w. oral single dose, rabbit plasma (Examples 5, 6, 7)
[7] = rabbit, 90 mg/kg, non-coated capsule, 90 mg/kg b.w. oral single dose, rabbit plasma (Examples 2, 3, 4)
[8] = after 1st milling (air jet mill)
[9] = after 2nd milling (air jet mill)

Plasma concentration, mean ([1]; 0.00 h, enteric coated capsule, rabbit): 0.000 ng/mL
Plasma concentration, mean ([1]; 0.00 h, non-coated capsule, rabbit): 0.000 ng/mL
Plasma concentration, mean ([1]; 0.16 h, enteric coated capsule, rabbit): 0.000 ng/mL
Plasma concentration, mean ([1]; 0.16 h, non-coated capsule, rabbit): 0.000 ng/mL
Plasma concentration, mean ([1]; 0.25 h, enteric coated capsule, rabbit): 0.000 ng/mL
Plasma concentration, mean ([1]; 0.25 h, non-coated capsule, rabbit): 51.798 ng/mL
Plasma concentration, mean ([1]; 0.50 h, enteric coated capsule, rabbit): 0.000 ng/mL
Plasma concentration, mean ([1]; 0.50 h, non-coated capsule, rabbit): 206.386 ng/mL
Plasma concentration, mean ([1]; 1.00 h, enteric coated capsule, rabbit): 9.027 ng/mL
Plasma concentration, mean ([1]; 1.00 h, non-coated capsule, rabbit): 594.725 ng/mL
Plasma concentration, mean ([1]; 2.00 h, enteric coated capsule, rabbit): 13.276 ng/mL
Plasma concentration, mean ([1]; 2.00 h, non-coated capsule, rabbit): 1377.183 ng/mL
Plasma concentration, mean ([1]; 4.00 h, enteric coated capsule, rabbit): 624.216 ng/mL
Plasma concentration, mean ([1]; 4.00 h, non-coated capsule, rabbit): 15776.855 ng/mL
Plasma concentration, mean ([1]; 6.00 h, enteric coated capsule, rabbit): 11866.638 ng/mL
Plasma concentration, mean ([1]; 6.00 h, non-coated capsule, rabbit): 46144.063 ng/mL
Plasma concentration, mean ([1]; 8.00 h, enteric coated capsule, rabbit): 18413.782 ng/mL
Plasma concentration, mean ([1]; 8.00 h, non-coated capsule, rabbit): 71215.612 ng/mL
Plasma concentration, mean ([1]; 24.00 h, enteric coated capsule, rabbit): 99879.409 ng/mL
Plasma concentration, mean ([1]; 24.00 h, non-coated capsule, rabbit): 98809.233 ng/mL
Plasma concentration, mean ([1]; 48.00 h, enteric coated capsule, rabbit): 101178.612 ng/mL
Plasma concentration, mean ([1]; 48.00 h, non-coated capsule, rabbit): 93029.388 ng/mL
Plasma concentration, mean ([1]; 72.00 h, enteric coated capsule, rabbit): 90966.319 ng/mL
Plasma concentration, mean ([1]; 72.00 h, non-coated capsule, rabbit): 84071.553 ng/mL
improvement in systemic exposure compared with the milled free base active ingredient ([1]; dry milled, capsules, 90 mg/kg oral, rabbit): greatest improvements
increase in the systemic exposure compared to a standard suspension of the active ingredient (example 8) ([1]; dry milled, non-coated or enteric-coated capsules, 90 mg/kg oral, rabbit): up to six-fold
systemic exposure when formulated together with an alkaline excipient ([1]; enteric coated capsule with MgO, 53 mg/kg oral, rabbit (Example 11)): significant amount of systemic exposure
AUCextrap ([1]; enteric coated capsule, 90 mg/kg b.w. oral single dose, rabbit plasma (Examples 5, 6, 7)): 88.81 ± 3.497%
systemic exposure when formulated with an alkaline excipient in comparison with formulation in the absence of an alkaline excipient ([1]; enteric coated capsules, 25 mg/kg oral, rabbit, Example 9 (MgO) vs Example 10 (mannitol)): increase
Cmax [1, 3]: 49600 ± 4800 ng/mL
MRT last [1, 3]: 27.67 ± 0.11 h
Tmax [1, 3]: 24 h
Cmax [1, 4]: 47400 ± 7060 ng/mL
MRT last [1, 4]: 30 ± 1.73 h
Tmax [1, 4]: 32 ± 13.9 h
AUC(0-t) [1, 5]: 8930 ± 1190 µg·h/mL
Cmax [1, 5]: 153000 ± 24300 ng/mL
MRT last [1, 5]: 40.9 ± 1.43 h
AUC(0-inf) [1, 6]: 55700 ± 22700 µg·h/mL
AUC(0-t) [1, 6]: 5710 ± 1140 µg·h/mL
Cmax [1, 6]: 101000 ± 17000 ng/mL
MRT last [1, 6]: 43 ± 1.59 h
Tmax [1, 6]: 32 ± 13.9 h
half-life [1, 6]: 368 ± 109 h
AUC(0-inf) [1, 7]: 38100 ± 34700 µg·h/mL
AUC(0-t) [1, 7]: 5980 ± 2270 µg·h/mL
Cmax [1, 7]: 99000 ± 34600 ng/mL
MRT last [1, 7]: 38.8 ± 1.2 h
Tmax [1, 7]: 32 ± 13.9 h
half-life [1, 7]: 227 ± 140 h
AUCextrap ([1]; non-coated capsule, 90 mg/kg b.w. oral single dose, rabbit plasma (Examples 2, 3, 4)): 79.01 ± 8.87%
Particle size distribution D10 [2, 8]: 0.508 μm
Particle size distribution D50 [2, 8]: 3.58 μm
Particle size distribution D90 [2, 8]: 11.5 μm
Particle size distribution D100 [2, 8]: 31.1 μm
Particle size distribution D10 [2, 9]: 0.414 μm
Particle size distribution D50 [2, 9]: 2.70 μm
Particle size distribution D90 [2, 9]: 8.29 μm
Particle size distribution D100 [2, 9]: 24.0 μm
Particle size distribution D10 ([2]; before milling): 1.11 μm
Particle size distribution D50 ([2]; before milling): 7.62 μm
Particle size distribution D90 ([2]; before milling): 31.7 μm
Particle size distribution D100 ([2]; before milling): 185 μm
SMILES: O=C(Nc1nc(=O)n(Cc2ccc(Cl)cc2)s1)c1ccc(Cl)cc1.[Na] [Compound 2, 4-chloro-N-[2-[(4-chlorophenyl)methyl]-3-oxo-1,2,4-thiadiazol-5-yl]benzamide sodium salt]

— US12162850B2, “Formulations” (Betagenon AB, priority 2019, dated 2024)
